Test systems include BT-549; CAKI-1; COLO 205; HCT-15; HL-60; HOP-62; K562; KM12; MDA-MB-435; NCI-H460; NCI-H522; OVCAR-4; SF-295; SF-539; SK-MEL-2; SR; TK-10; UACC-62; UO-31.
Common to all, as to assay: NCI tumour cell line growth inhibition, 48 h

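The compound was tested at five concentrations on cells cultured in 96-well plates, with a 48-hour exposure period. GI50 marks 50% less growth.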 The source made the active and inactive calls. No stated cut-off is given here; in the data, active = GI50 up to about 1.1 µM and inactive = higher. Bounds are passed on as bounds.

`COc1c(O)ccc(C2=Cc3ccc(O)cc3OC2)c1OC`: the GI50 was 23.6 µM (inactive) with BT-549; 8.81 µM (inactive) in the experiment with CAKI-1; 28.2 µM (inactive) with COLO 205; 14.1 µM in the experiment on HCT-15; 2.82 µM (inactive) in the experiment on HL-60; 20.9 µM (inactive) with HOP-62. Also, the GI50 in the experiment with K562 is 7.08 µM (inactive); in the experiment with KM12, 7.33 µM (inactive); with MDA-MB-435, 7.64 µM (inactive); in the experiment on NCI-H460, 31 µM (inactive); in the experiment on NCI-H522, 2.34 µM (inactive); with OVCAR-4 it was 23.9 µM (inactive). The GI50 is 22.8 µM (inactive) with SF-295; 16.3 µM (inactive) with SF-539; 23.4 µM (inactive) in the experiment on SK-MEL-2; 2.15 µM (inactive) with SR; 55.2 µM (inactive) in the experiment on TK-10; 16.2 µM (inactive) in the experiment on UACC-62. Moreover, the GI50 in the experiment with UO-31 is 11.6 µM (inactive).
Turning to `O=C(O)c1nn(-c2ccccc2-c2nnc(O)nc2O)c(=O)[nH]c1=O`, the GI50 is > 100 µM (inactive) in the experiment with BT-549; > 100 µM (inactive) in the experiment on CAKI-1; > 100 µM (inactive) with COLO 205; > 100 µM in the experiment on HCT-15; 30.5 µM (inactive) in the experiment on HL-60; > 100 µM (inactive) in the experiment on HOP-62. The GI50 with K562 is 2.47 µM (inactive); in the experiment with KM12 it was > 100 µM (inactive); in the experiment with MDA-MB-435, > 100 µM (inactive); with NCI-H460, > 100 µM (inactive); in the experiment on NCI-H522, > 100 µM (inactive); in the experiment on OVCAR-4, > 100 µM (inactive). Also, the GI50 with SF-295, in the experiment on SF-539, with SK-MEL-2, in the experiment with SR, with TK-10 and in the experiment with UACC-62 was > 100 µM (inactive) in each case. Also, in the experiment with UO-31, the GI50 is > 100 µM (inactive).
On to `Cc1nnc(N)nc1/C=C\c1cccs1`, for which the GI50 in the experiment with BT-549 is 42.9 µM (inactive); in the experiment with CAKI-1, 34.2 µM (inactive); in the experiment with COLO 205 it was 27.7 µM (inactive); with HCT-15, 10.2 µM; in the experiment on HL-60, 6.11 µM (inactive); in the experiment on HOP-62 it was 16.7 µM (inactive). Moreover, the GI50 in the experiment on K562 is 23.4 µM (inactive); in the experiment on KM12, 16.8 µM (inactive); in the experiment on MDA-MB-435 it was 18 µM (inactive); in the experiment with NCI-H460, 14.7 µM (inactive); in the experiment with NCI-H522, 4.06 µM (inactive); in the experiment on OVCAR-4, 21.6 µM (inactive). Further, the GI50 in the experiment with SF-295 is 21.4 µM (inactive); in the experiment on SK-MEL-2, 14.6 µM (inactive); in the experiment with SR, 16.6 µM (inactive); in the experiment on TK-10, 32.4 µM (inactive); with UACC-62, 14.9 µM (inactive); with UO-31, 10.1 µM (inactive).
In the case of `CCN(CC)CCOc1ccc(N2C(=O)c3cc(OC)c(OC)cc3C2=O)cc1`, the GI50 in the experiment on BT-549 is > 100 µM (inactive); in the experiment on CAKI-1, > 100 µM (inactive); in the experiment with COLO 205, > 100 µM (inactive); with HCT-15 it was > 100 µM; with HL-60, > 100 µM (inactive); with HOP-62, > 100 µM (inactive). For the same molecule, the GI50 in the experiment with K562, in the experiment with KM12, in the experiment with MDA-MB-435, with NCI-H460, with NCI-H522 and with OVCAR-4 was > 100 µM (inactive) throughout. Further, the GI50 with SF-295, with SF-539, with SK-MEL-2, in the experiment with SR, in the experiment on TK-10 and in the experiment on UACC-62 was > 100 µM (inactive) in each case.
As for `Nc1ccc(COC(O)CN2CCCCC2)cc1[N+](=O)[O-]` (stereo unspecified), the GI50 in the experiment with BT-549 was > 100 µM (inactive); with CAKI-1, > 100 µM (inactive); in the experiment with COLO 205 it was > 100 µM (inactive); in the experiment on HCT-15, > 100 µM; with HL-60, > 100 µM (inactive); in the experiment on K562 it was > 100 µM (inactive). For the same molecule, the GI50 in the experiment on KM12, with MDA-MB-435, in the experiment with NCI-H460, with NCI-H522, in the experiment on OVCAR-4 and in the experiment with SF-295 was > 100 µM (inactive) throughout. Moreover, the GI50 with SF-539, in the experiment with SK-MEL-2, with SR, in the experiment on TK-10, with UACC-62 and with UO-31 was > 100 µM (inactive) throughout.
In the case of `CC1(C)NC2C(=O)c3c([nH]c4ccccc34)[C@]3(C)CCC1CC23` (stereo partly specified), the GI50 is > 100 µM (inactive) in the experiment on BT-549; > 100 µM (inactive) in the experiment on CAKI-1; > 100 µM (inactive) in the experiment on COLO 205; 83 µM in the experiment with HCT-15; > 100 µM (inactive) in the experiment on HL-60; > 100 µM (inactive) in the experiment on HOP-62. Moreover, the GI50 is 96.8 µM (inactive) in the experiment on K562; > 100 µM (inactive) in the experiment on KM12; > 100 µM (inactive) in the experiment with MDA-MB-435; > 100 µM (inactive) with NCI-H460; > 100 µM (inactive) with NCI-H522; 60.8 µM (inactive) in the experiment on OVCAR-4. Also, the GI50 in the experiment on SF-295 is > 100 µM (inactive); in the experiment with SF-539, > 100 µM (inactive); in the experiment on SK-MEL-2, > 100 µM (inactive); in the experiment with SR it was 55.2 µM (inactive); in the experiment with TK-10 it was > 100 µM (inactive); in the experiment with UACC-62 it was > 100 µM (inactive). Also, the GI50 in the experiment on UO-31 is > 100 µM (inactive).
Consider `Nc1ccn(C2OC(COP(=O)(O)OCC3OC(n4cc(F)c(=O)[nH]c4=O)CC3O)C(O)C2O)c(=O)n1` (stereo unspecified), for which the GI50 is > 37.6 µM (inactive) with BT-549; 0.508 µM (active) with CAKI-1; 4.68 µM (inactive) with COLO 205; 5.75 µM in the experiment with HCT-15; 0.237 µM (active) in the experiment on HL-60; > 100 µM (inactive) in the experiment with K562. Also, the GI50 with KM12 was > 100 µM (inactive); with MDA-MB-435, 1.58 µM (inactive); in the experiment with NCI-H460, < 0.01 µM (active); in the experiment on NCI-H522, 14.6 µM (inactive); in the experiment on OVCAR-4, > 100 µM (inactive); with SF-295, 0.0453 µM (active). In addition, the GI50 is < 0.0439 µM (active) in the experiment with SF-539; > 100 µM (inactive) in the experiment with SK-MEL-2; < 0.01 µM (active) in the experiment on SR; 0.0925 µM (active) with UACC-62; 0.339 µM (active) in the experiment with UO-31.
For `O=C(CN1CCNCCN(CC(=O)N2CCCCC2)CCNCC1)N1CCCCC1`, the GI50 in the experiment with BT-549 was > 100 µM (inactive); in the experiment on CAKI-1, > 100 µM (inactive); in the experiment on COLO 205 it was > 100 µM (inactive); with HCT-15, > 100 µM; in the experiment with HL-60, 32.2 µM (inactive); in the experiment on HOP-62, > 100 µM (inactive). The GI50 in the experiment on K562 is 40.3 µM (inactive); with KM12, 17.6 µM (inactive); in the experiment on MDA-MB-435 it was > 100 µM (inactive); with NCI-H460, 43 µM (inactive); in the experiment with NCI-H522, 40.6 µM (inactive); with OVCAR-4, > 100 µM (inactive). Moreover, the GI50 is > 100 µM (inactive) in the experiment with SF-295; > 100 µM (inactive) with SF-539; > 100 µM (inactive) with SK-MEL-2; 34.4 µM (inactive) in the experiment with SR; > 100 µM (inactive) in the experiment on TK-10; > 100 µM (inactive) in the experiment on UACC-62. Also, in the experiment on UO-31, the GI50 was > 100 µM (inactive).
Take `O=C(/C=C/c1ccccc1)Oc1cccc(Br)c1`: the GI50 in the experiment on BT-549 was > 100 µM (inactive); in the experiment with CAKI-1 it was 48.6 µM (inactive); in the experiment on COLO 205 it was 64.1 µM (inactive); in the experiment on HCT-15, 18.2 µM; in the experiment on HL-60 it was 18.1 µM (inactive); in the experiment on HOP-62, > 100 µM (inactive). For the same molecule, the GI50 in the experiment on KM12 was 31.8 µM (inactive); in the experiment on MDA-MB-435, > 100 µM (inactive); with NCI-H460, > 100 µM (inactive); in the experiment on NCI-H522, 5.68 µM (inactive); with OVCAR-4, 93.8 µM (inactive); with SF-295, 24.4 µM (inactive). Besides, the GI50 in the experiment with SF-539 was 39.9 µM (inactive); in the experiment with SK-MEL-2, > 100 µM (inactive); with SR it was 23.4 µM (inactive); in the experiment with TK-10, > 100 µM (inactive); in the experiment on UACC-62 it was 74 µM (inactive); with UO-31, 52.8 µM (inactive).
As for `CC(C)n1c2c(c3ccccc3c1=O)C(=O)c1ccccc1-2`, the GI50 in the experiment on BT-549 is > 100 µM (inactive); with CAKI-1, > 100 µM (inactive); in the experiment on COLO 205, > 100 µM (inactive); with HCT-15 it was > 100 µM; in the experiment with HL-60, > 100 µM (inactive); in the experiment with HOP-62, > 100 µM (inactive). Further, the GI50 in the experiment on K562 was > 100 µM (inactive); in the experiment with KM12, > 100 µM (inactive); in the experiment with MDA-MB-435, > 100 µM (inactive); with NCI-H522, > 100 µM (inactive); with OVCAR-4, 50.5 µM (inactive); in the experiment with SF-295 it was > 100 µM (inactive). In addition, the GI50 in the experiment with SF-539, in the experiment on SK-MEL-2, with SR, with TK-10, with UACC-62 and in the experiment with UO-31 was > 100 µM (inactive) in each case.
`COc1ccc2cc(CNCCCCCCCCNCc3ccc4cc(OC)ccc4c3)ccc2c1`: the GI50 in the experiment with BT-549 is 6.67 µM (inactive); in the experiment with CAKI-1, 6.67 µM (inactive); in the experiment with COLO 205 it was 2.48 µM (inactive); in the experiment with HCT-15, 2 µM; in the experiment with HL-60, 1.58 µM (inactive); in the experiment with HOP-62 it was 4.97 µM (inactive). For the same molecule, the GI50 is 0.975 µM (active) with K562; 3.92 µM (inactive) in the experiment on KM12; 4.94 µM (inactive) with MDA-MB-435; 2.07 µM (inactive) with NCI-H460; 4.37 µM (inactive) with NCI-H522; 6.34 µM (inactive) in the experiment with OVCAR-4. The GI50 with SF-295 was 5.3 µM (inactive); in the experiment with SK-MEL-2, 4.71 µM (inactive); in the experiment with SR, 1.12 µM (active); in the experiment with TK-10, 3.37 µM (inactive); in the experiment with UACC-62, 2.01 µM (inactive); in the experiment on UO-31, 6.78 µM (inactive).

The values are drawn from ChEMBL document CHEMBL1201862, “PubChem BioAssay data set” (2004).
